Assay results from patent publication US20110152166A1, “METHOD OF MODULATION OF PROTEIN PHOSPHORYLATION-DEPENDENT CONFORMATIONAL TRANSITIONS WITH LOW MOLECULAR WEIGHT COMPOUNDS” (priority 2006, published 2011).
Numbering of substitutions follows the chain as printed. Ends that are not written are not given here.

Key:
Assay in all cases: PDK1 activity assay with T308tide
Assay type in all cases: biochemical
[1] = biological target: T1, GST-PDK1 [Gln150Met] (Homo sapiens, UniProt O15530, Q150M)
T1 construct: different protein constructs, comprising the full length protein or the catalytic domain alone; made in house; host or cells: HEK293 cells (pEBG-2T-PDK1 mutant)
T1 sequence (O15530 1-556 Q150M): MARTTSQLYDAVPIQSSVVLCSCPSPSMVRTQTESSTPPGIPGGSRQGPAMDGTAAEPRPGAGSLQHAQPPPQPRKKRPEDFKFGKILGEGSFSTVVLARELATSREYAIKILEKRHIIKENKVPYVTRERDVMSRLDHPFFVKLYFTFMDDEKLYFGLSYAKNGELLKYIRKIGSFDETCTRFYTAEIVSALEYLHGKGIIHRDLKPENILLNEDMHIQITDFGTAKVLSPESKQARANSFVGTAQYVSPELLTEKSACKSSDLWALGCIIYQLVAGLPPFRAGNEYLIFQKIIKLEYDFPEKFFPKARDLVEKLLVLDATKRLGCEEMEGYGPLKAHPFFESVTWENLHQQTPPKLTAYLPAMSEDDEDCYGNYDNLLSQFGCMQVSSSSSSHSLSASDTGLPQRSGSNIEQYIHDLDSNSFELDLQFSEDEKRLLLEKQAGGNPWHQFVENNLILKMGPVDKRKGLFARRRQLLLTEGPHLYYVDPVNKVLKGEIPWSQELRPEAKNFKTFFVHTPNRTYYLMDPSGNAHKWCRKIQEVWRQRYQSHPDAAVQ

[2] = biological target: T2, GST-PDK1 [Phe157Met] (Homo sapiens, UniProt O15530, F157M)
T2 construct: different protein constructs, comprising the full length protein or the catalytic domain alone; made in house; host or cells: HEK293 cells (pEBG-2T-PDK1 mutant)
T2 sequence (O15530 1-556 F157M): T1 sequence (O15530 1-556 Q150M) with M150Q, F157M

[3] = biological target: T3, GST-PDK1 [Val124Ala] (Homo sapiens, UniProt O15530, V124A)
T3 construct: different protein constructs, comprising the full length protein or the catalytic domain alone; made in house; host or cells: HEK293 cells (pEBG-2T-PDK1 mutant)
T3 sequence (O15530 1-556 V124A): T1 sequence (O15530 1-556 Q150M) with V124A, M150Q

With `O=C(O)CSC(CC(=O)c1ccc(Cl)cc1)c1ccccc1` (stereo not drawn) [Compound 1] the AC50 [1] was 177 ± 64 µM, the Max. activity [1] was 2.28 ± 0.26 U/mg and the AC50 [2] was 140 ± 100 µM. The Max. activity [2] was 0.9 ± 0.3 U/mg, the AC50 [3] was greater than 200 µM and the Max. activity [3] was 2.6 ± 0.5 U/mg.

Compound “REPRILSEEEQEMFRDFDYIADWC [PIFtide, reference compound]” has an AC50 [1] of 0.86 ± 0.25 µM, a Max. activity [1] of 2.11 ± 0.15 U/mg and an AC50 [2] of 1.52 ± 0.59 µM. It also gave a Max. activity [2] of 1.7 ± 0.24 U/mg, an AC50 [3] of 0.21 ± 0.03 µM and a Max. activity [3] of 1.91 ± 0.06 U/mg.
